Measurements: PubChem BioAssay (NCI)
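96-well plates; 48 h exposure; 5 concentrations. Endpoints by linear interpolation between flanking doses. Not reached: highest tested concentration assigned. GI50 marks 50% less growth. At the TGI there is no net growth.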

Legend:
Assay in all cases: growth of human tumour cells (NCI), 48 h
NCI-H522 lung = test system: NCI-H522 lung
M14 melanoma = test system: M14 melanoma
IGROV1 ovarian = test system: IGROV1 ovarian
K-562 leukemia = test system: K-562 leukemia
OVCAR-8 ovarian = test system: OVCAR-8 ovarian
HCT-15 colon = test system: HCT-15 colon
A549 NSCLC = test system: A549 NSCLC
786-0 renal = test system: 786-0 renal
RPMI-8226 leukemia = test system: RPMI-8226 leukemia
A498 renal = test system: A498 renal
RXF 393 renal = test system: RXF 393 renal
UACC-62 melanoma = test system: UACC-62 melanoma
SF-268 CNS = test system: SF-268 CNS
ACHN renal = test system: ACHN renal
OVCAR-5 ovarian = test system: OVCAR-5 ovarian
SK-OV-3 ovarian = test system: SK-OV-3 ovarian
NCI-H226 lung = test system: NCI-H226 lung
HOP-62 NSCLC = test system: HOP-62 NSCLC
MOLT-4 leukemia = test system: MOLT-4 leukemia
SNB-75 CNS = test system: SNB-75 CNS
UACC-257 melanoma = test system: UACC-257 melanoma
DU-145 prostate = test system: DU-145 prostate
HT29 colon = test system: HT29 colon
SF-539 CNS = test system: SF-539 CNS
SF-295 CNS = test system: SF-295 CNS
SK-MEL-5 melanoma = test system: SK-MEL-5 melanoma
MDA-MB-435 = test system: MDA-MB-435
UO-31 renal = test system: UO-31 renal
SW-620 colon = test system: SW-620 colon
SN12C renal = test system: SN12C renal
SR leukemia = test system: SR leukemia
OVCAR-4 ovarian = test system: OVCAR-4 ovarian
TK-10 renal = test system: TK-10 renal
HCT-116 colon = test system: HCT-116 colon
HCC-2998 colon = test system: HCC-2998 colon
MCF7 breast = test system: MCF7 breast
MALME-3M melanoma = test system: MALME-3M melanoma
HL-60(TB) leukemia = test system: HL-60(TB) leukemia
PC-3 prostate = test system: PC-3 prostate
KM12 colon = test system: KM12 colon
SNB-19 CNS = test system: SNB-19 CNS
NCI-H460 lung = test system: NCI-H460 lung
T-47D breast = test system: T-47D breast
NCI-H23 lung = test system: NCI-H23 lung
LOX IMVI melanoma = test system: LOX IMVI melanoma
MDA-MB-231 breast = test system: MDA-MB-231 breast
CCRF-CEM leukemia = test system: CCRF-CEM leukemia
BT-549 breast = test system: BT-549 breast
COLO 205 colon = test system: COLO 205 colon
U251 CNS = test system: U251 CNS
EKVX NSCLC = test system: EKVX NSCLC
HOP-92 NSCLC = test system: HOP-92 NSCLC
HS 578T breast = test system: HS 578T breast
NCI/ADR-RES ovarian = test system: NCI/ADR-RES ovarian
CAKI-1 renal = test system: CAKI-1 renal
SK-MEL-28 melanoma = test system: SK-MEL-28 melanoma
SK-MEL-2 melanoma = test system: SK-MEL-2 melanoma

SMILES: Cc1cc2nc3c4cc(C#N)ccc4n(CCN(C)C)c3nc2cc1C
- GI50 (NCI-H522 lung): 0.505 µM
- TGI (NCI-H522 lung): 1.96 µM
- GI50 (M14 melanoma): 1.36 µM
- TGI (M14 melanoma): 3.82 µM
- GI50 (IGROV1 ovarian): 1.07 µM
- TGI (IGROV1 ovarian): 5.6 µM
- GI50 (K-562 leukemia): 0.682 µM
- TGI (K-562 leukemia): > 34.1 µM
- GI50 (OVCAR-8 ovarian): 0.584 µM
- TGI (OVCAR-8 ovarian): 3.92 µM
- GI50 (HCT-15 colon): 1.01 µM
- TGI (HCT-15 colon): 6.17 µM
- GI50 (A549 NSCLC): 0.666 µM
- TGI (A549 NSCLC): 3.02 µM
- GI50 (786-0 renal): 1.34 µM
- TGI (786-0 renal): > 20 µM
- GI50 (RPMI-8226 leukemia): 1.1 µM
- TGI (RPMI-8226 leukemia): 4.61 µM
- GI50 (A498 renal): 1.93 µM
- GI50 (RXF 393 renal): 0.918 µM
- TGI (RXF 393 renal): 2.83 µM
- GI50 (UACC-62 melanoma): 1.4 µM
- TGI (UACC-62 melanoma): 5.21 µM
- GI50 (SF-268 CNS): 1.62 µM
- TGI (SF-268 CNS): > 20.7 µM
- GI50 (ACHN renal): 0.324 µM
- TGI (ACHN renal): 1.48 µM
- GI50 (OVCAR-5 ovarian): 1.45 µM
- TGI (OVCAR-5 ovarian): > 22.6 µM
- GI50 (SK-OV-3 ovarian): 0.919 µM
- TGI (SK-OV-3 ovarian): 9.98 µM
- GI50 (NCI-H226 lung): 1.23 µM
- TGI (NCI-H226 lung): 8.43 µM
- GI50 (HOP-62 NSCLC): 0.755 µM
- GI50 (MOLT-4 leukemia): 0.429 µM
- TGI (MOLT-4 leukemia): > 32.6 µM
- GI50 (SNB-75 CNS): 0.951 µM
- TGI (SNB-75 CNS): 2.67 µM
- GI50 (UACC-257 melanoma): 0.686 µM
- TGI (UACC-257 melanoma): 2.06 µM
- GI50 (DU-145 prostate): 1.1 µM
- TGI (DU-145 prostate): > 32.7 µM
- GI50 (HT29 colon): 0.546 µM
- TGI (HT29 colon): 6.8 µM
- GI50 (SF-539 CNS): 0.966 µM
- GI50 (SF-295 CNS): 0.932 µM
- TGI (SF-295 CNS): > 22.5 µM
- GI50 (SK-MEL-5 melanoma): 1.69 µM
- TGI (SK-MEL-5 melanoma): 3.51 µM
- GI50 (MDA-MB-435): 1.01 µM
- TGI (MDA-MB-435): 3.39 µM
- GI50 (UO-31 renal): 0.312 µM
- TGI (UO-31 renal): 2.24 µM
- GI50 (SW-620 colon): 0.411 µM
- TGI (SW-620 colon): 1.97 µM
- GI50 (SN12C renal): 0.77 µM
- TGI (SN12C renal): > 20.8 µM
- GI50 (SR leukemia): 0.362 µM
- TGI (SR leukemia): 3.59 µM
- GI50 (OVCAR-4 ovarian): 1.65 µM
- TGI (OVCAR-4 ovarian): 5.73 µM
- GI50 (TK-10 renal): 1.98 µM
- TGI (TK-10 renal): > 23.2 µM
- GI50 (HCT-116 colon): 0.429 µM
- TGI (HCT-116 colon): 1.76 µM
- GI50 (HCC-2998 colon): 1.03 µM
- TGI (HCC-2998 colon): 2.44 µM
- GI50 (MCF7 breast): 1.2 µM
- TGI (MCF7 breast): 6.72 µM
- GI50 (MALME-3M melanoma): 1.38 µM
- TGI (MALME-3M melanoma): 3.6 µM
- GI50 (HL-60(TB) leukemia): 1.16 µM
- TGI (HL-60(TB) leukemia): 4.37 µM
- GI50 (PC-3 prostate): 1.49 µM
- TGI (PC-3 prostate): > 21.1 µM
- GI50 (KM12 colon): 1.69 µM
- TGI (KM12 colon): > 29.7 µM
- GI50 (SNB-19 CNS): 0.978 µM
- TGI (SNB-19 CNS): > 25.2 µM
- GI50 (NCI-H460 lung): 0.416 µM
- TGI (NCI-H460 lung): 2.51 µM
- GI50 (T-47D breast): 2.3 µM
- GI50 (NCI-H23 lung): 0.507 µM
- TGI (NCI-H23 lung): 2.37 µM
- GI50 (LOX IMVI melanoma): 0.601 µM
- TGI (LOX IMVI melanoma): 2.8 µM
- GI50 (MDA-MB-231 breast): 1.06 µM
- TGI (MDA-MB-231 breast): > 20.6 µM
- GI50 (CCRF-CEM leukemia): 1.22 µM
- TGI (CCRF-CEM leukemia): > 33.8 µM
- GI50 (BT-549 breast): 2.4 µM
- GI50 (COLO 205 colon): 0.456 µM
- TGI (COLO 205 colon): 1.63 µM
- GI50 (U251 CNS): 0.86 µM
- GI50 (EKVX NSCLC): 1.71 µM
- TGI (EKVX NSCLC): > 23.8 µM
- GI50 (HOP-92 NSCLC): 0.634 µM
- TGI (HOP-92 NSCLC): 4.58 µM
- GI50 (HS 578T breast): 1.59 µM
- TGI (HS 578T breast): > 21.5 µM
- GI50 (NCI/ADR-RES ovarian): 0.637 µM
- TGI (NCI/ADR-RES ovarian): 7.08 µM
- GI50 (CAKI-1 renal): 0.381 µM
- TGI (CAKI-1 renal): 3.42 µM
- GI50 (SK-MEL-28 melanoma): 2.27 µM
- GI50 (SK-MEL-2 melanoma): 2.18 µM
- TGI (SK-MEL-2 melanoma): 6.15 µM
